According to ChEMBL document CHEMBL4414608, “Secophragmalin-Type Limonoids from Trichilia connaroides: Isolation, Semisynthesis, and Their Cytotoxic Activities” (J Nat Prod, 2019):
Activity calls are given as the source filed them. No cut-off for these calls is given here.

Columns and labels:
COLO 205 = assay: Cytotoxicity against human COLO205 cells assessed as cell growth inhibition measured after 24 hrs by MTT assay; format: functional, cell-based; conditions: COLO 205, 24 h
HeLa = assay: Cytotoxicity against human HeLa cells assessed as cell growth inhibition measured after 24 hrs by MTT assay; format: functional, cell-based
SK-OV-3 = assay: Cytotoxicity against human SKOV3 cells assessed as cell growth inhibition measured after 24 hrs by MTT assay; format: functional, cell-based; conditions: SK-OV-3, 24 h
DU-145 [1] = assay: Cytotoxicity against human DU145 cells assessed as cell growth inhibition measured after 24 hrs by MTT assay; format: functional, cell-based; conditions: DU-145, 24 h
A549 = assay: Cytotoxicity against human A549 cells assessed as cell growth inhibition measured after 24 hrs by MTT assay; format: functional, cell-based; conditions: A549, 24 h
DU-145 [2] = assay: Induction of apoptosis in human DU145 cells assessed as early apoptotic cells at 4.2 uM measured after 24 hrs by Annexin-V/FITC and propidium iodide staining based flow cytometry (reference value: 0.25 %); format: functional
DU-145 [3] = assay: Induction of apoptosis in human DU145 cells assessed as early apoptotic cells at 7 uM measured after 24 hrs by Annexin-V/FITC and propidium iodide staining based flow cytometry (reference value: 0.25 %); format: functional
DU-145 [4] = assay: Induction of apoptosis in human DU145 cells assessed as necrotic cells at 4.2 uM measured after 24 hrs by Annexin-V/FITC and propidium iodide staining based flow cytometry (reference value: 2.64 %); format: functional
DU-145 [5] = assay: Induction of apoptosis in human DU145 cells assessed as live cells at 4.2 uM measured after 24 hrs by Annexin-V/FITC and propidium iodide staining based flow cytometry (reference value: 95.62 %); format: functional
DU-145 [6] = assay: Induction of apoptosis in human DU145 cells assessed as live cells at 7 uM measured after 24 hrs by Annexin-V/FITC and propidium iodide staining based flow cytometry (reference value: 95.62 %); format: functional
DU-145 [7] = assay: Induction of apoptosis in human DU145 cells assessed as increase in total apoptotic cells measured after 24 hrs by Annexin-V/FITC and propidium iodide staining based flow cytometry; format: functional, cell-based
DU-145 [8] = assay: Induction of apoptosis in human DU145 cells assessed as late apoptotic cells at 7 uM measured after 24 hrs by Annexin-V/FITC and propidium iodide staining based flow cytometry (reference value: 1.49 %); format: functional
DU-145 [9] = assay: Cell cycle arrest in human DU145 cells assessed as accumulation at G0/G1 phase at 4.2 uM measured after 24 hrs by RNase A/propidium iodide staining based flow cytometry analysis (reference value: 51.75 %); format: functional
DU-145 [10] = assay: Induction of apoptosis in human DU145 cells assessed as necrotic cells at 7 uM measured after 24 hrs by Annexin-V/FITC and propidium iodide staining based flow cytometry (reference value: 2.64 %); format: functional
DU-145 [11] = assay: Induction of apoptosis in human DU145 cells assessed as late apoptotic cells at 4.2 uM measured after 24 hrs by Annexin-V/FITC and propidium iodide staining based flow cytometry (reference value: 1.49 %); format: functional
DU-145 [12] = assay: Induction of apoptosis in human DU145 cells assessed as early apoptotic cells at 3.6 uM measured after 24 hrs by Annexin-V/FITC and propidium iodide staining based flow cytometry (reference value: 0.25 %); format: functional
DU-145 [13] = assay: Cell cycle arrest in human DU145 cells assessed as accumulation at G0/G1 phase at 3.6 uM measured after 24 hrs by RNase A/propidium iodide staining based flow cytometry analysis (reference value: 51.75 %); format: functional
DU-145 [14] = assay: Induction of apoptosis in human DU145 cells assessed as necrotic cells at 6 uM measured after 24 hrs by Annexin-V/FITC and propidium iodide staining based flow cytometry (reference value: 2.64 %); format: functional
DU-145 [15] = assay: Induction of apoptosis in human DU145 cells assessed as late apoptotic cells at 3.6 uM measured after 24 hrs by Annexin-V/FITC and propidium iodide staining based flow cytometry (reference value: 1.49 %); format: functional
DU-145 [16] = assay: Induction of apoptosis in human DU145 cells assessed as live cells at 6 uM measured after 24 hrs by Annexin-V/FITC and propidium iodide staining based flow cytometry (reference value: 95.62 %); format: functional
DU-145 [17] = assay: Induction of apoptosis in human DU145 cells assessed as necrotic cells at 3.6 uM measured after 24 hrs by Annexin-V/FITC and propidium iodide staining based flow cytometry (reference value: 2.64 %); format: functional
DU-145 [18] = assay: Induction of apoptosis in human DU145 cells assessed as late apoptotic cells at 6 uM measured after 24 hrs by Annexin-V/FITC and propidium iodide staining based flow cytometry (reference value: 1.49 %); format: functional
DU-145 [19] = assay: Induction of apoptosis in human DU145 cells assessed as live cells at 3.6 uM measured after 24 hrs by Annexin-V/FITC and propidium iodide staining based flow cytometry (reference value: 95.62 %); format: functional
DU-145 [20] = assay: Induction of apoptosis in human DU145 cells assessed as early apoptotic cells at 6 uM measured after 24 hrs by Annexin-V/FITC and propidium iodide staining based flow cytometry (reference value: 0.25 %); format: functional
DU-145 [21] = assay: Induction of apoptosis in human DU145 cells assessed as early apoptotic cells at 4.8 uM measured after 24 hrs by Annexin-V/FITC and propidium iodide staining based flow cytometry (reference value: 0.25 %); format: functional
DU-145 [22] = assay: Cell cycle arrest in human DU145 cells assessed as accumulation at G2/M phase at 4.8 uM measured after 24 hrs by RNase A/propidium iodide staining based flow cytometry analysis; format: functional
DU-145 [23] = assay: Induction of apoptosis in human DU145 cells assessed as live cells at 4.8 uM measured after 24 hrs by Annexin-V/FITC and propidium iodide staining based flow cytometry (reference value: 95.62 %); format: functional
DU-145 [24] = assay: Induction of apoptosis in human DU145 cells assessed as late apoptotic cells at 4.8 uM measured after 24 hrs by Annexin-V/FITC and propidium iodide staining based flow cytometry (reference value: 1.49 %); format: functional
DU-145 [25] = assay: Induction of apoptosis in human DU145 cells assessed as necrotic cells at 4.8 uM measured after 24 hrs by Annexin-V/FITC and propidium iodide staining based flow cytometry (reference value: 2.64 %); format: functional

Structure (SMILES) | IC50 (COLO 205) | IC50 (HeLa) | IC50 (SK-OV-3) | IC50 (DU-145 [1]) | IC50 (A549) | further results
C/C=C(\C)C(=O)O[C@H]1[C@]2(C)C[C@@H]3O[C@@]1(O)C=C1C4=CC(=O)O[C@@H](c5ccoc5)[C@]4(C)CC[C@@H]1[C@]3(C)[C@@H]2[C@@H](O)C(=O)OC | > 100 µM | > 100 µM | > 100 µM | 7.7 µM | 8.1 µM | –
C/C=C(\C)C(=O)O[C@@H]1[C@]2(OC(=O)CCCC)C=C3C4=CC(=O)O[C@@H](c5ccoc5)[C@]4(C)CC[C@@H]3[C@@]3(C)[C@H](C[C@]1(C)[C@H]3[C@@H](OC(=O)CCCC)C(=O)OC)O2 | > 100 µM | > 100 µM | > 100 µM | 4.2 µM | 5.5 µM | Activity (DU-145 [2]): 0.86%; Activity (DU-145 [3]): 0.92%; Activity (DU-145 [4]): 2.45%; Activity (DU-145 [5]): 93.3%; Activity (DU-145 [6]): 89.44%; Activity (DU-145 [7]): Dose-dependent effect; Activity (DU-145 [8]): 5.73%; Activity (DU-145 [9]): 53.27%; Activity (DU-145 [10]): 3.91%; Activity (DU-145 [11]): 3.39%
C/C=C(\C)C(=O)O[C@@H]1[C@]2(OC(=O)CC)C=C3C4=CC(=O)O[C@@H](c5ccoc5)[C@]4(C)CC[C@@H]3[C@@]3(C)[C@H](C[C@]1(C)[C@H]3[C@@H](OC(=O)CC)C(=O)OC)O2 | > 100 µM | > 100 µM | > 100 µM | > 100 µM | > 100 µM | –
C/C=C(\C)C(=O)O[C@H]1[C@]2(C)C[C@@H]3O[C@@]1(O)C=C1C4=CC(=O)O[C@@H](c5ccoc5)[C@]4(C)CC[C@@H]1[C@]3(C)[C@@H]2C(=O)C(=O)OC | > 100 µM | > 100 µM | > 100 µM | > 100 µM | 44.4 µM | –
C/C=C(\C)C(=O)O[C@@H]1[C@]2(OC(=O)c3ccco3)C=C3C4=CC(=O)O[C@@H](c5ccoc5)[C@]4(C)CC[C@@H]3[C@@]3(C)[C@H](C[C@]1(C)[C@H]3[C@@H](OC(=O)c1ccco1)C(=O)OC)O2 | > 100 µM | > 100 µM | > 100 µM | 17.8 µM | 7.6 µM | –
C/C=C(\C)C(=O)O[C@@H]1[C@]2(OC(=O)C(C)C)C=C3C4=CC(=O)O[C@@H](c5ccoc5)[C@]4(C)CC[C@@H]3[C@@]3(C)[C@H](C[C@]1(C)[C@H]3[C@@H](OC(=O)C(C)C)C(=O)OC)O2 | > 100 µM | > 100 µM | > 100 µM | > 100 µM | > 100 µM | –
CCOC(=O)[C@H](O)[C@@H]1[C@@]2(C)C[C@@H]3O[C@@](O)(C=C4C5=CC(=O)O[C@@H](c6ccoc6)[C@]5(C)CC[C@@H]4[C@@]31C)[C@H]2O | > 100 µM | > 100 µM | > 100 µM | 3.6 µM | 16.3 µM | Activity (DU-145 [12]): 0.84%; Activity (DU-145 [13]): 47.2%; Activity (DU-145 [14]): 3.42%; Activity (DU-145 [15]): 5.39%; Activity (DU-145 [16]): 89.27%; Activity (DU-145 [17]): 2.8%; Activity (DU-145 [7]): Dose-dependent effect; Activity (DU-145 [18]): 6.45%; Activity (DU-145 [19]): 90.97%; Activity (DU-145 [20]): 0.86%
COC(=O)[C@H](O)[C@@H]1[C@@]2(C)C[C@@H]3O[C@@](O)(C=C4C5=CC(=O)O[C@@H](c6ccoc6)[C@]5(C)CC[C@@H]4[C@@]31C)[C@H]2O | > 100 µM | > 100 µM | > 100 µM | > 100 µM | 9.6 µM | –
C/C=C(\C)C(=O)O[C@@H]1[C@]2(OC(=O)C3CC3)C=C3C4=CC(=O)O[C@@H](c5ccoc5)[C@]4(C)CC[C@@H]3[C@@]3(C)[C@H](C[C@]1(C)[C@H]3[C@@H](OC(=O)C1CC1)C(=O)OC)O2 | > 100 µM | > 100 µM | > 100 µM | > 100 µM | > 100 µM | –
C/C=C(\C)C(=O)O[C@@H]1[C@]2(OC(=O)C3CC3)C=C3C4=CC(=O)O[C@@H](c5ccoc5)[C@]4(C)CC[C@@H]3[C@@]3(C)[C@H](C[C@]1(C)[C@H]3[C@@H](O)C(=O)OC)O2 | > 100 µM | > 100 µM | > 100 µM | > 100 µM | 11.8 µM | –
C/C=C(\C)C(=O)O[C@@H]1C(=O)/C=C2/C3=CC(=O)O[C@@H](c4ccoc4)[C@]3(C)CC[C@@H]2[C@@]2(C)C(=O)C[C@]1(C)[C@@H]2[C@@H](O)C(=O)OC | > 100 µM | > 100 µM | > 100 µM | 10.5 µM | > 100 µM | –
C/C=C(\C)C(=O)O[C@@H]1[C@]2(OC(=O)CC)C=C3C4=CC(=O)O[C@@H](c5ccoc5)[C@]4(C)CC[C@@H]3[C@@]3(C)[C@H](C[C@]1(C)[C@H]3[C@@H](O)C(=O)OC)O2 | > 100 µM | > 100 µM | > 100 µM | 6.7 µM | > 100 µM | –
C/C=C(\C)C(=O)O[C@H]1[C@]2(C)C[C@@H]3O[C@@]1(O)C=C1C4=CC(=O)O[C@@H](c5ccoc5)[C@]4(C)CC[C@@H]1[C@]3(C)[C@@H]2[C@@H](OC(C)=O)C(=O)OC | > 100 µM | > 100 µM | > 100 µM | > 100 µM | > 100 µM | –
COc1cccc2c1C(=O)c1c(O)c3c(c(O)c1C2=O)C[C@@](O)(C(=O)CO)C[C@@H]3O[C@H]1C[C@H](N)[C@H](O)[C@H](C)O1 [DOXORUBICIN] | 3.8 µM | 7.9 µM | 3 µM | 4.8 µM | 5.3 µM | Activity (DU-145 [21]): 2.41%; Activity (DU-145 [22]): Active; Activity (DU-145 [23]): 84.42%; Activity (DU-145 [24]): 10.77%; Activity (DU-145 [25]): 2.4%
